Measurements as given in US20250144067A1, “PERSONALIZED STARVATION THERAPY FOR CANCER” (Faeth Therapeutics, Inc., priority 2021, published 2025).
Like-named read-outs stand apart in the source and are kept apart here.

Columns and labels:
[1] = tested on: NCI-H292 lung cancer cells; experiment: FDA drug screening, complete media vs cholesterol-free media without statin (TABLE 1); assay type: cell-based, human
[2] = tested on: NCI-H292 lung cancer cells; experiment: FDA drug screening, complete media vs cholesterol-free media with simvastatin (TABLE 2); assay type: cell-based, human
[3] = Complete minus Cholesterol-free, >0 enhanced anti-cancer activity, about 0 neutral, <0 antagonist
[4] = NCI-H292 cells, cholesterol-free media without statin, FDA drug library screen
[5] = NCI-H292 cells, complete media, FDA drug library screen
[6] = NCI-H292 cells, FDA drug library screen, cholesterol-free media with simvastatin 0.04 μM
[7] = NCI-H292 cells, FDA drug library screen, complete media
[8] = complete media vs cholesterol-free media + simvastatin (0.04 μM), >0 enhanced anti-cancer activity, about 0 neutral, <0 antagonist
[9] = Complete minus Cholesterol-free, greater than 0 enhanced anti-cancer activity, about 0 neutral, below 0 antagonists
[10] = NCI-H292 cells in cholesterol-free media without statin
[11] = NCI-H292 cells in complete media
[12] = NCI-H292 cells, drug in cholesterol-free media with simvastatin 0.04 μM
[13] = NCI-H292 cells, drug in complete media
[14] = NCI-H292 cells, cholesterol-free media without statin
[15] = NCI-H292 cells, cholesterol-free media with simvastatin 0.04 μM, cell growth value in FDA drug screen
[16] = NCI-H292 cells, complete media, cell growth value in FDA drug screen
[17] = complete media minus cholesterol-free media + simvastatin, >0 enhanced anti-cancer activity, about 0 neutral, <0 antagonist
[18] = complete vs cholesterol-free media, greater than 0 enhanced anti-cancer activity, about 0 neutral, below 0 antagonists
[19] = Complete minus Cholesterol-free, greater than 0 enhanced anti-cancer activity, about 0 neutral, below 0 antagonist
[20] = NCI-H292 cells, FDA drug library screen, cholesterol-free media without statin
[21] = complete media minus cholesterol-free media + simvastatin, […]
[22] = complete vs cholesterol-free media, >0 enhanced anti-cancer activity, about 0 neutral, <0 antagonist
[23] = NCI-H292 cells, FDA library drug in cholesterol-free media with simvastatin 0.04 μM
[24] = NCI-H292 cells, FDA library drug in complete media
[25] = complete media minus cholesterol-free media + simvastatin (0.04 μM), >0 enhanced anti-cancer activity, about 0 neutral, <0 antagonist
[26] = NCI-H292 cells, cholesterol-free media with simvastatin 0.04 μM, FDA drug library screen (TABLE 2)
[27] = NCI-H292 cells, complete media, FDA drug library screen (TABLE 2)
[28] = Complete minus Cholesterol-free, […]

Molecule: C[C@H]1C[C@@H]2[C@H]([C@@H](O)C[C@@]3(C)[C@H]2CC[C@]3(O)C(=O)COC(=O)CCC(=O)[O-])[C@@]2(C)C=CC(=O)C=C12.[Na+]
- Difference [1, 3]: 0.02
- Cholesterol-free [1, 4]: 0.6071
- Complete [1, 5]: 0.6313
- Cholesterol-free media + simvastatin (0.04 μM) [2, 6]: 0.7536
- Complete Media [2, 7]: 0.682
- Difference [2, 8]: −0.07

Molecule: COc1cc(O)c(C(=O)Nc2nc(C(=O)NCCN(C(C)C)C(C)C)cs2)cc1OC
- Difference [1, 9]: −0.47
- Cholesterol-free [1, 10]: 1.419
- Complete [1, 11]: 0.9453
- Cholesterol-free media + simvastatin (0.04 μM) [2, 12]: 1.16
- Complete Media [2, 13]: 0.9105
- Difference [2, 8]: −0.25

Molecule: O=C(O)CC(O)(CC(=O)O)C(=O)O
- Difference [1, 3]: −0.20
- Cholesterol-free [1, 14]: 1.776
- Complete ([1]; NCI-H292 cells, complete media): 1.574
- Cholesterol-free media + simvastatin (0.04 μM) [2, 15]: 0.864
- Complete Media [2, 16]: 0.9089
- Difference [2, 17]: 0.04

Molecule: CCOc1ccc(Cc2cc([C@@H]3O[C@H](CO)[C@@H](O)[C@H](O)[C@H]3O)ccc2Cl)cc1
- Complete ([1]; NCI-H292 cells, complete media): 0.6259
- Difference [1, 18]: −0.32
- Cholesterol-free media + simvastatin (0.04 μM) [2, 6]: 0.9312
- Complete Media [2, 7]: 1.177
- Difference [2, 17]: 0.25

Molecule: CC1=C(C(=O)OCCN(Cc2ccccc2)c2ccccc2)C(c2cccc([N+](=O)[O-])c2)C(P2(=O)OCC(C)(C)CO2)=C(C)N1.CCO.Cl (stereo not drawn)
- Difference [1, 19]: −0.15
- Cholesterol-free [1, 20]: 0.9837
- Complete [1, 7]: 0.8325
- Cholesterol-free media + simvastatin (0.04 μM) [2, 6]: 1.113
- Complete Media [2, 7]: 1.012
- Difference [2, 8]: −0.10

Molecule: O=C(O)CN(CCN(CC(=O)O)CC(=O)O)CC(=O)O
- Difference [1, 3]: −0.27
- Cholesterol-free [1, 14]: 1.665
- Complete ([1]; NCI-H292 cells, complete media): 1.397
- Cholesterol-free media + simvastatin (0.04 μM) [2, 15]: 0.8557
- Complete Media [2, 16]: 0.9311
- Difference [2, 17]: 0.08

Molecule: Cc1cc2nc3c(=O)[nH]c(=O)nc-3n(C[C@H](O)[C@H](O)[C@H](O)COP(=O)(O)OP(=O)(O)OC[C@H]3O[C@@H](n4cnc5c(N)ncnc54)[C@H](O)[C@@H]3O)c2cc1C
- Difference [1, 19]: −0.12
- Cholesterol-free [1, 20]: 0.9242
- Complete [1, 7]: 0.8033
- Cholesterol-free media + simvastatin (0.04 μM) [2, 12]: 1.111
- Complete Media [2, 13]: 0.8891
- Difference [2, 8]: −0.22

Molecule: Cc1cn(-c2cc(NC(=O)c3ccc(C)c(Nc4nccc(-c5cccnc5)n4)c3)cc(C(F)(F)F)c2)cn1
- Difference [1, 9]: −0.54
- Cholesterol-free [1, 10]: 1.23
- Complete [1, 11]: 0.6857
- Cholesterol-free media + simvastatin (0.04 μM) [2, 6]: 0.854
- Complete Media [2, 7]: 0.7821
- Difference [2, 8]: −0.07

Molecule: Clc1ccc2c(N3CCN(CCCN4CCN(c5ccnc6cc(Cl)ccc56)CC4)CC3)ccnc2c1
- Cholesterol-free [1, 14]: 1.226
- Complete ([1]; NCI-H292 cells, complete media): 0.8255
- Difference ([1]; complete vs cholesterol-free media, […]): −0.40
- Cholesterol-free media + simvastatin (0.04 μM) [2, 6]: 0.9008
- Complete Media [2, 7]: 1.047
- Difference [2, 21]: 0.15

Molecule: C[S+](CC[C@H](N)C(=O)[O-])C[C@H]1O[C@@H](n2cnc3c(N)ncnc32)[C@H](O)[C@@H]1O.Cc1ccc(S(=O)(=O)O)cc1.O=S(=O)(O)O.O=S(=O)(O)O (stereo partly drawn)
- Difference [1, 19]: −0.11
- Cholesterol-free [1, 20]: 1.112
- Complete [1, 7]: 1.004
- Cholesterol-free media + simvastatin (0.04 μM) [2, 6]: 1.19
- Complete Media [2, 7]: 1.075
- Difference [2, 8]: −0.12

Molecule: CN[C@@H]1[C@H](O)[C@H](NC)[C@H]2O[C@@]3(O)C(=O)C[C@@H](C)O[C@H]3O[C@@H]2[C@H]1O.Cl.Cl.O.O.O.O.O
- Difference [1, 9]: −0.93
- Cholesterol-free [1, 10]: 1.889
- Complete [1, 11]: 0.9594
- Cholesterol-free media + simvastatin (0.04 μM) [2, 6]: 0.773
- Complete Media [2, 7]: 0.9222
- Difference [2, 17]: 0.15

Molecule: Cl.Cl.OCCN1CCN(CCC=C2c3ccccc3Sc3ccc(C(F)(F)F)cc32)CC1 (mixture of isomers) [Flupentixol dihydrochloride]
- Cholesterol-free [1, 14]: 1.101
- Complete ([1]; NCI-H292 cells, complete media): 0.7804
- Difference [1, 18]: −0.32
- Cholesterol-free media + simvastatin (0.04 μM) [2, 6]: 0.5255
- Complete Media [2, 7]: 1.084
- Difference [2, 17]: 0.56

Molecule: OC[C@H]1O[C@@H](O[C@@H]2[C@@H](CO)OC(O)(CO)[C@H]2O)[C@H](O)[C@@H](O)[C@H]1O (mixture of isomers) [Lactulose]
- Difference [1, 19]: −0.16
- Cholesterol-free [1, 20]: 1.109
- Complete [1, 7]: 0.9456
- Cholesterol-free media + simvastatin (0.04 μM) [2, 15]: 0.7227
- Complete Media [2, 16]: 0.8015
- Difference [2, 17]: 0.08

Molecule: CC(C)NCC(O)COc1ccc(COCCOC(C)C)cc1.CC(C)NCC(O)COc1ccc(COCCOC(C)C)cc1.O=C(O)/C=C/C(=O)O (racemic) [(±)-Bisoprolol (hemifumarate)]
- Difference [1, 3]: −0.20
- Cholesterol-free [1, 14]: 1.077
- Complete ([1]; NCI-H292 cells, complete media): 0.8813
- Cholesterol-free media + simvastatin (0.04 μM) [2, 6]: 0.9429
- Difference [2, 17]: 0.21

Molecule: NC(=O)C(c1ccccc1)(c1ccccc1)[C@@H]1CCN(CCc2ccc3c(c2)CCO3)C1 (racemic) [(±)-Darifenacin]
- Cholesterol-free [1, 4]: 1.009
- Complete [1, 5]: 1.18
- Difference [1, 22]: 0.17
- Cholesterol-free media + simvastatin (0.04 μM) [2, 6]: 0.9772
- Complete Media [2, 7]: 0.8726
- Difference [2, 8]: −0.10

Molecule: O=C(c1ccc(F)c(F)c1Nc1ccc(I)cc1F)N1CC(O)([C@@H]2CCCCN2)C1 (racemic) [Cobimetinib (racemate)]
- Difference [1, 3]: −0.02
- Cholesterol-free [1, 4]: 0.2982
- Complete [1, 5]: 0.2751
- Cholesterol-free media + simvastatin (0.04 μM) [2, 6]: 0.2662
- Complete Media [2, 7]: 0.405
- Difference [2, 17]: 0.14

Molecule: N=C(N)NCCCC(N)C(=O)O (racemic) [DL-Arginine]
- Cholesterol-free [1]: 1.525
- Complete [1]: 1.476
- Difference [1]: −0.05
- Cholesterol-free media + simvastatin (0.04 μM) [2]: 0.9889
- Complete Media [2]: 0.9776
- Difference [2]: −0.01

Molecule: NC(=O)CCC(N)C(=O)O (racemic) [DL-Glutamine]
- Difference [1, 19]: −0.07
- Cholesterol-free [1, 20]: 1.771
- Complete [1, 7]: 1.698
- Cholesterol-free media + simvastatin (0.04 μM) [2, 23]: 0.9407
- Complete Media [2, 24]: 0.6307
- Difference [2, 8]: −0.31

Molecule: CC1CCC(C(C)C)C(O)C1 (racemic) [DL-Menthol]
- Cholesterol-free [1, 14]: 1.299
- Complete ([1]; NCI-H292 cells, complete media): 0.8907
- Difference [1, 18]: −0.41
- Cholesterol-free media + simvastatin (0.04 μM) [2, 6]: 0.8922
- Complete Media [2, 7]: 1.05
- Difference [2, 17]: 0.16

Molecule: C[S+](C)CCC(N)C(=O)O.[Cl-] (racemic) [DL-Methionine methylsulfonium (chloride)]
- Difference [1, 19]: −0.16
- Cholesterol-free [1, 20]: 1.102
- Complete [1, 7]: 0.9454
- Cholesterol-free media + simvastatin (0.04 μM) [2, 23]: 1.182
- Complete Media [2, 24]: 0.8884
- Difference [2, 8]: −0.29

Molecule: CSCCC(N)C(=O)O (racemic) [DL-Methionine]
- Difference [1, 3]: −0.06
- Cholesterol-free [1, 4]: 1.381
- Complete [1, 5]: 1.325
- Cholesterol-free media + simvastatin (0.04 μM) [2, 15]: 0.9866
- Complete Media [2, 16]: 1.007
- Difference [2, 17]: 0.02

Molecule: Cl.NCC(O)c1ccc(O)c(O)c1 (racemic) [DL-Norepinephrine (hydrochloride)]
- Cholesterol-free [1, 4]: 1.105
- Complete [1, 5]: 1.652
- Difference [1, 22]: 0.55
- Cholesterol-free media + simvastatin (0.04 μM) [2, 23]: 0.9652
- Complete Media [2, 24]: 0.176
- Difference [2, 8]: −0.79

Molecule: CC(C)(CO)C(O)C(=O)NCCCO (racemic) [DL-Panthenol]
- Difference [1, 9]: −0.82
- Cholesterol-free [1, 10]: 1.816
- Complete [1, 11]: 0.9995
- Cholesterol-free media + simvastatin (0.04 μM) [2, 6]: 1.177
- Complete Media [2, 7]: 1.049
- Difference [2, 8]: −0.13

Molecule: CC(C)Cc1ccc([C@@H](C)C(=O)O)cc1 [(R)-(—)-Ibuprofen]
- Difference [1, 9]: −0.96
- Cholesterol-free [1, 10]: 1.742
- Complete [1, 11]: 0.7774

Molecule: CC(C)Cc1ccc([C@@H](C)C(=O)O)cc1 [(R)-(−)-Ibuprofen]
- Difference [2, 25]: 0.01

Molecule: NS(=O)(=O)c1cc(C(=O)O)c(NCc2ccco2)cc1Cl [Furosemide (sodium)]
- Cholesterol-free media + simvastatin (0.04 μM) [2, 26]: 1.074
- Complete Media [2, 27]: 1.02
- Difference [2, 25]: −0.05

Molecule: NS(=O)(=O)c1cc(C(=O)O)c(NCc2ccco2)cc1Cl [Furosemide]
- Cholesterol-free media + simvastatin (0.04 μM) [2, 12]: 1.11
- Complete Media [2, 13]: 0.894
- Difference [2, 8]: −0.22

Molecule: CCN(CC)C(=O)C1(c2ccccc2)CC1CN.Cl (stereo not drawn) [Milnacipran ((1S-cis) hydrochloride)]
- Cholesterol-free media + simvastatin (0.04 μM) [2, 6]: 0.9487
- Complete Media [2, 7]: 0.8731
- Difference ([2]; complete media vs cholesterol-free media + simvastatin (0.04 μM), […]): −0.08

Molecule: CCN(CC)C(=O)C1(c2ccccc2)CC1CN.Cl (stereo not drawn) [Milnacipran ((1S-cis)hydrochloride)]
- Difference [1, 28]: −0.18
- Cholesterol-free [1, 20]: 1.07
- Complete [1, 7]: 0.894

Molecule: Dihydroergotoxine (mesylate)
- Cholesterol-free media + simvastatin (0.04 μM) [2, 26]: 0.9089
- Complete Media [2, 27]: 0.9065
- Difference ([2]; complete media minus cholesterol-free media + simvastatin (0.04 μM), […]): 0.00

Molecule: Escin
- Difference [1, 28]: −0.22
- Cholesterol-free [1, 14]: 1.276

Molecule: γ-Oryzanol
- Complete Media [2, 7]: 1.39
- Difference [2, 21]: 0.24
